Test results: patent publication US6229016A, “Method for treating tumors using 2-aryl-naphthyridin-4-ones” (priority 2000, dated 2001)
Like-named read-outs stand apart in the source and are kept apart here.

Legend:
[1] = test system: PC-3 prostate cancer cell line; assay: NCI in vitro screen, prostate cancer PC-3; format: cell-based; conditions: Homo sapiens, read-out: Cytotoxicity log GI50 (converted)
Excerpt: (§1) Compounds 41-51 and 53-68 were submitted to NCI and assayed in the NCI's in vitro disease-oriented antitumor screen, which involves determination of a test compound's effects on the growth of approximately 60 human tumor cell lines. See, M. R. Boyd, et al. In Cancer: Principles and Practice of Oncology Updates; De Vita, V. T., Hellman, S., Rosenberg, S. A., Eds; J. B. Lippincoft: Philadelphia, pp 1-12 (1989); and A. Monks, et al. J. Natl. Cancer Inst. 83:757 (1991). These lines include leukemia, non-small cell lung, colon, central nervous system (CNS), melanoma, ovarian, renal, prostate, and breast cancers.
(§2) Compounds 29'-51' were submitted to NCI and assayed in the NCI's in vitro disease-oriented antitumor screen, using the techniques described in Example 5. This assay involves determinations of a test agent's effect on growth parameters against a panel of approximately 60 human tumor cell lines, derived largely from solid tumors, including non-small cell lung, colon, central nervous system, renal, ovarian, prostate, and breast cancers, plus a few leukemia cell lines. The cytotoxic effects of each compound are obtained as GI50 or […] values, which represent the molar drug concentrations required to cause half growth inhibition and total growth inhibition, respectively. The results are expressed for each cell line as average log GI50 values in Table 4, as log GI50 values in Table 5, and as log TGI values and average log TGI values in Table 6.

[2] = test system: SK-MEL-5 melanoma cell line; assay: NCI in vitro screen, melanoma SK-MEL-5; format: cell-based; conditions: Homo sapiens, read-out: Cytotoxicity log GI50 (converted)
Excerpt: as §1, §2

[3] = test system: MDA-MB-435 breast cancer cell line; assay: NCI in vitro screen, breast cancer MDA-MB-435; format: cell-based; conditions: Homo sapiens, read-out: Cytotoxicity log GI50 (converted)
[4] = test system: U-251 CNS cancer cell line; assay: NCI in vitro screen, CNS cancer U-251; format: cell-based; conditions: Homo sapiens, read-out: Cytotoxicity log GI50 (converted)
[5] = test system: HCT-116 colon cancer cell line; assay: NCI in vitro screen, colon cancer HCT-116; format: cell-based; conditions: Homo sapiens; HCT-1.16 (head); HCT-116 (footnote); read-out: Cytotoxicity log GI50 (converted)
[6] = test system: NCI-H460 non-small cell lung cancer cell line; assay: NCI in vitro screen, non-small cell lung cancer NCI-H460; format: cell-based; conditions: Homo sapiens, read-out: Cytotoxicity log GI50 (converted)
[7] = test system: HL-60(TB) leukemia cell line; assay: cells; format: cell-based; conditions: Homo sapiens; HL-60(TB); read-out: Cytotoxicity log GI50 (converted)
[8] = test system: MDA-N breast cancer cell line; assay: NCI in vitro screen, breast cancer MDA-N; format: cell-based; conditions: Homo sapiens, read-out: Cytotoxicity log GI50 (converted)
Excerpt: as §1, §2

[9] = test system: NCI's 60 human tumor cell line; assay: NCI 60 human tumor cell line in vitro screen (average / whole panel); format: cell-based; conditions: calculated from all cell lines tested, molar concentrations, read-out: average log GI50 (converted)
[10] = test system: SF-295 CNS cancer cell line; assay: NCI in vitro screen, CNS cancer SF-295; format: cell-based; conditions: Homo sapiens, read-out: Cytotoxicity log GI50 (converted)
[11] = test system: OVCAR-3 ovarian cancer cell line; assay: NCI in vitro screen, ovarian cancer OVCAR-3; format: cell-based; conditions: Homo sapiens, read-out: Cytotoxicity log GI50 (converted)
[12] = test system: 786-0 renal cancer cell line; assay: NCI in vitro screen, renal cancer 786-0; format: cell-based; conditions: Homo sapiens, read-out: Cytotoxicity log GI50 (converted)
Excerpt: as §1, §2

[13] = test system: tubulin; assay: Tubulin polymerization assay; format: biochemical, bovine
Method: Electrophoretically homogeneous bovine brain tubulin was purified as described in E. Hamel, et al. Biochemistry 23:4173 (1984).
The tubulin polymerization assay was performed as described in S. Kuo, et al. J. Med. Chem. 36:1146 (1993); L. Li, et al. J. Med. Chem. 37:1126 (1994); and L. Li J. Med. Chem. 37:3400 (1994). In brief, tubulin at 1.2 mg/ml (12 μM) was preincubated for 15 min at 26° C. in a 0.24-ml volume of 0.8 M monosodium glutamate (pH 6.6 with NaOH in a 2 M stock solution) with varying drug concentrations. The drug stock solutions were in DMSO, and the final solvent concentration was 4 % (v/v). All concentrations are in terms of the final reaction volume (0.25 ml). The reaction mixtures were chilled on ice, and 10 μl of 10 mM GTP was added to each reaction mixture. Samples were transferred to cuvettes held at 0° C. by an electronic temperature controller in Gilford spectrophotometers. Baselines were established at 350 nm, and polymerization initiated by a temperature jump to 26° C. The jump took about 50 sec to complete. After 20 min, turbidity readings were recorded, and the temperature controller was set to 0C. When depolymerization was complete, turbidity readings were again recorded. […] IC50 values were obtained graphically from inhibition of polymerization by different drug concentrations.
Electrophoretically, homogeneous bovine brain tubulin was purified as described in Example 6.
The tubulin polymerization assay was performed as described in Example 6.

[14] = Tables 1 and 4, read-out: ITP HC50 ± SD (Inhibition of Tubulin Polymerization)

IC50 [13, 14] [µM] | Structure (SMILES) | GI50 [1] [µM] | GI50 [2] [µM] | GI50 [3] [µM] | GI50 [4] [µM] | GI50 [5] [µM] | GI50 [6] [µM] | GI50 [7] [µM] | GI50 [8] [µM] | GI50 [9] [µM] | GI50 [10] [µM] | GI50 [11] [µM] | GI50 [12] [µM] | IC50 ([13]; read-out: IC50, inhibition of tubulin polymerization) [µM]
 | Cc1ccc2c(n1)N=C(c1cccc3ccccc13)CC2=O [Compound 45, 2-(α-Naphthyl)-7-methyl-1,8-naphthyridin-4-one] | 0.0302 | 0.0138 | < 0.01 | 0.0155 | < 0.01 | 0.0174 | < 0.01 | < 0.01 | 0.0661 | 0.024 | < 0.01 | 6.03 | 
 | COc1cccc(-c2cc(=O)c3c(C)ccnc3[nH]2)c1 [Compound 45] | 0.0263 | 0.0224 | < 0.01 | 0.0589 | 0.0447 | 0.0479 | 0.0129 | < 0.01 | 0.0589 | 0.0288 | 0.0257 | 0.0513 | 
 | Cc1cc(C)c2c(n1)N=C(c1cccc3ccccc13)CC2=O [Compound 46, 2-(α-Naphthyl)-5,7-dimethyl-1,8-naphthyridin-4-one] | 0.759 | 0.468 | 0.191 | 0.372 | 0.38 | 0.631 | 0.245 | 0.234 | 1.05 | 0.589 | 0.347 | 9.55 | 
 | O=C1CC(c2ccc3ccccc3c2)=Nc2ncccc21 [Compound 47, 2-(β-Naphthyl)-1,8-naphthyridin-4-one] | 10.5 | 3.47 | 1.78 | 4.37 | 3.8 | 3.8 | 1.82 | 1.66 | 8.13 | 9.12 | 8.32 | 5.62 | 
 | Cc1ccnc2c1C(=O)CC(c1ccc3ccccc3c1)=N2 [Compound 48, 2-(β-Naphthyl)-5-methyl-1,8-naphthyridin-4-one] | 1.38 | 0.437 | 0.204 | 0.646 | 0.427 | 1.12 | 0.204 | 0.204 | 1.2 | 1.48 | 1.29 | 2.4 | 
 | COc1cccc(-c2cc(=O)c3c(C)cc(C)nc3[nH]2)c1 [Compound 48] | 0.309 | 0.288 | < 0.01 | 0.17 | 0.407 | 0.447 | 0.174 | < 0.01 | 0.646 | 0.417 | 0.251 | 0.437 | 
 | Cc1cnc2c(c1)C(=O)CC(c1ccc3ccccc3c1)=N2 [Compound 49, 2-(β-Naphthyl)-6-methyl-1,8-naphthyridin-4-one] | 0.407 | 0.363 | 0.105 | 0.468 | 0.468 | 0.398 | 0.141 | 0.132 | 0.741 | 0.55 | 0.355 | 0.617 | 
 | Cc1ccc2c(n1)N=C(c1ccc3ccccc3c1)CC2=O [Compound 50, 2-(β-Naphthyl)-7-methyl-1,8-naphthyridin-4-one] | 2.63 | 3.31 | 1.58 | 4.57 | 3.98 | 3.8 | 1.78 | 1.95 | 4.57 | 3.8 | 3.63 | 5.37 | 
 | Cc1cc(C)c2c(=O)cc(-c3ccc4ccccc4c3)[nH]c2n1 [Compound 51, 2-(β-Naphthyl)-5,7-methyl-1,8-naphthyridin-4-one] | 5.5 | 2.19 | 2.95 | 15.8 | 12.6 | 13.2 | 3.47 | 3.24 | 13.5 | 14.8 | 20 | 51.3 | 
 | COc1ccc(-c2cc(=O)c3cccnc3[nH]2)cc1 [Compound 51] | 31.6 | 34.7 | 20 | 53.7 | 17.8 | 26.3 | 12.9 | 20.9 | 38 | 64.6 | 30.2 | 56.2 | 
 | COc1ccc(-c2cc(=O)c3c(C)ccnc3[nH]2)cc1 [Compound 52] | 18.2 | 3.89 | 2.4 | 6.31 | 6.46 | 6.17 | 4.37 | 2.09 | 12.9 | 19.5 | 13.8 | 25.1 | 
2.9 ± 0.7 | Cc1ccc(C2=Nc3nccc(C)c3C(=O)C2)cc1 [Compound 67, 2-(4'-Methylphenyl)-5-methyl-1,8-naphthyridin-4-one] |  |  |  |  |  |  |  |  |  |  |  |  | 
2.4 ± 0.8 | Cc1ccc(C2=Nc3ncc(C)cc3C(=O)C2)cc1 [Compound 68, 2-(4'-Methylphenyl)-6-methyl-1,8-naphthyridin-4-one] |  |  |  |  |  |  |  |  |  |  |  |  | 
4.9 ± 0.2 | Cc1ccc(C2=Nc3nc(C)ccc3C(=O)C2)cc1 [Compound 69, 2-(4'-Methylphenyl)-7-methyl-1,8-naphthyridin-4-one] |  |  |  |  |  |  |  |  |  |  |  |  | 
9.8 ± 2 | Cc1ccc(C2=Nc3nc(C)cc(C)c3C(=O)C2)cc1 [Compound 70, 2-(4'-Methylphenyl)-5,7-dimethyl-1,8-naphthyridin-4-one] |  |  |  |  |  |  |  |  |  |  |  |  | 

Structure (SMILES) | IC50 [13, 14] [µM] | GI50 [1] [µM] | GI50 [2] [µM] | GI50 [3] [µM] | GI50 [4] [µM] | GI50 [5] [µM] | GI50 [6] [µM] | GI50 [7] [µM] | GI50 [8] [µM] | GI50 [9] [µM] | GI50 [10] [µM] | GI50 [11] [µM] | GI50 [12] [µM] | IC50 ([13]; read-out: IC50, inhibition of tubulin polymerization) [µM]
COc1ccc(C2=Nc3ncc(C)cc3C(=O)C2)cc1 [Compound 53, 2-(4'-Methoxyphenyl)-6-methyl-1,8-naphthyridin-4-one] | 7.7 ± 0.7 | 5.37 | 3.72 | 1.82 | 4.17 | 4.17 | 4.07 | 2.29 | 1.7 | 6.17 | 5.25 | 2.95 | 5.13 | 1.5 to 9.8
COc1ccc(C2=Nc3nc(C)ccc3C(=O)C2)cc1 [Compound 54, 2-(4'-Methoxyphenyl)-7-methyl-1,8-naphthyridin-4-one] | > 40 | > 100 | 47.9 | 42.7 | > 100 | > 100 | > 100 | > 100 | 55 | 91.2 | 89.1 | > 100 | > 100 | 
COc1ccc(C2=Nc3nc(C)cc(C)c3C(=O)C2)cc1 [Compound 55, 2-(4'-Methoxyphenyl)-5,7-dimethyl-1,8-naphthyridin-4-one] | > 40 | 24 | 17.8 | 28.8 | 91.2 | 36.3 | 40.7 | 15.8 | 33.1 | 33.1 | 42.7 | 32.4 | 58.9 | 
